Values after ≈ are worked out from the molar mass of the structure shown.
Test system: SAUR 9218
Assay: MIC Test Method, standard agar dilution
Type: cell-based
Conditions: agar dilution, Mueller Hinton agar, incubated overnight at 35° C.; lowest concentration that inhibits visible growth; read-out: SAUR 9218 MIC
Procedure: The in vitro MiCs of test compounds were determined by a standard agar dilution method. A stock drug solution of each analog was prepared in the preferred solvent, usually DMSO:H2O (1:3). Serial 2-fold dilutions of each sample are made using 1.0 ml aliquots of sterile distil]ed water. To each 1.0 ml aliquot of drug was added 9 ml of molten Mueller Hinton agar medium. The drug-supplemented agar was mixed, poured into 15×100 mm petri dishes, and allowed to solidify and dry prior to inoculation.
Vials of each of the test organisms are maintained frozen in the vapor phase of a liquid nitrogen freezer. Test cultures are grown overnight at 35° C. on the medium appropriate for the organism. Colonies are harvested with a sterile swab, and cell suspensions are prepared in Trypticase Soy broth (TSB) to equal the turbidity of a 0.5 McFamland standard. A 1:20 dilution of each suspension was made in TSB. The plates containing the drug supplemented agar are inoculated with a 0.001 ml drop of the cell suspension using a Steers replicator, yielding approximately 10^4 to 10^5 cells per spot. The plates are incubated overnight at 35° C.
Following incubation the Minimum Inhibitory Concentration (MIC μg/ml), the lowest concentration of drug that inhibits visible growth of the organism, was read and recorded.

Row | Structure (SMILES) | MIC
1 | Cc1sc(C(=O)Nc2ccc(Br)cc2C(=O)O)cc1S(=O)(=O)N1CCN(c2cccc(C(F)(F)F)c2)CC1 | 32 µg/mL (≈ 50.6 µM)
2 | O=C(Nc1ccc(Br)cc1C(=O)O)c1cc(Cl)nc(Cl)c1 | 32 µg/mL (≈ 82 µM)
3 | O=C(Nc1ccc(Br)cc1C(=O)O)c1ccc(-c2cccc(C(F)(F)F)c2)o1 | 16 µg/mL (≈ 35.2 µM)
4 | Cc1c(S(=O)(=O)Nc2ccc(F)c(Cl)c2)csc1C(=O)Nc1ccc(Br)cc1C(=O)O | 64 µg/mL (≈ 117 µM)
5 | Cc1nc2cc(NS(=O)(=O)c3cc(C(=O)Nc4ccc(Br)cc4C(=O)O)sc3C)ccc2s1 | 32 µg/mL (≈ 56.5 µM)
6 | CCOP(=O)(Cc1ccc(NS(=O)(=O)c2cc(C(=O)Nc3ccc(Br)cc3C(=O)O)sc2C)cc1)OCC | 64 µg/mL (≈ 99.1 µM)
7 | Cc1sc(C(=O)Nc2ccc(Br)cc2C(=O)O)cc1S(=O)(=O)Nc1ccc(Cl)cc1 | 4 µg/mL (≈ 7.55 µM)
8 | CCN(CC)c1ccc(NS(=O)(=O)c2cc(C(=O)Nc3ccc(Br)cc3C(=O)O)cs2)cc1 | > 128 µg/mL
9 | Cn1c(C(=O)Nc2ccc(C#N)cc2C(=O)O)cc2c(-c3ccccc3C(F)(F)F)cc(-c3ccccc3C(F)(F)F)c(NC(=O)Cc3ccccc3)c21 | 8 µg/mL (≈ 10.8 µM)
10 | CCCCCCCSc1ccc(C(=O)Nc2ccc(Br)cc2C(=O)O)nn1 | 0.06 µg/mL (≈ 0.133 µM)
11 | N#Cc1ccc(NC(=O)c2noc3cc(-c4ccc([N+](=O)[O-])cc4C(F)(F)F)c([N+](=O)[O-])cc23)c(C(=O)O)c1 | 0.03 µg/mL (≈ 0.0554 µM)
12 | Cn1c(C(=O)Nc2ccc(C#N)cc2C(=O)O)c(Br)c2cccc(OCc3ccccc3)c21 | 1 µg/mL (≈ 1.98 µM)
13 | Cn1c(C(=O)Nc2ccc(C#N)cc2C(=O)O)cc2c(Br)ccc(NC(=O)Cc3ccccc3)c21 | 2 µg/mL (≈ 3.76 µM)
14 | Cn1c(C(=O)Nc2ccc(C#N)cc2C(=O)O)cc2ccc(NS(=O)(=O)c3cccc4cccnc34)cc21 | 1 µg/mL (≈ 1.9 µM)
15 | N#Cc1ccc(NC(=O)c2noc3ccc(S(=O)(=O)N4CCOCC4)cc23)c(C(=O)O)c1 | 0.5 µg/mL (≈ 1.1 µM)
16 | Cn1c(C(=O)Nc2ccc(C#N)cc2C(=O)O)cc2ccc(OCC3CCC3)cc21 | 0.125 µg/mL (≈ 0.31 µM)
17 | CCCC(=O)Nc1ccc2cc(C(=O)Nc3ccc(C#N)cc3C(=O)O)n(C)c2c1 | 1 µg/mL (≈ 2.47 µM)
18 | COCC(=O)Nc1ccc2cc(C(=O)Nc3ccc(C#N)cc3C(=O)O)n(C)c2c1 | 2 µg/mL (≈ 4.92 µM)
19 | CCCCCSc1ccc(C(=O)Nc2ccc(Br)cc2C(=O)O)nn1 | 0.03 µg/mL (≈ 0.0707 µM)
20 | Cc1cccc2cc(C(=O)Nc3ccc(C#N)cc3C(=O)O)[nH]c12 | 2 µg/mL (≈ 6.26 µM)
21 | N#Cc1ccc(NC(=O)c2cc3cccc4c3n2CCC4=O)c(C(=O)O)c1 | 1 µg/mL (≈ 2.78 µM)
22 | CC(=O)Nc1ccc(-c2cc3onc(C(=O)Nc4ccc(C#N)cc4C(=O)O)c3cc2NC(C)=O)c(C(F)(F)F)c1 | 0.03 µg/mL (≈ 0.0531 µM)
23 | CN(C)S(=O)(=O)c1ccc2onc(C(=O)Nc3ccc(C#N)cc3C(=O)O)c2c1 | 0.125 µg/mL (≈ 0.302 µM)
24 | COCC(=O)Nc1ccc2onc(C(=O)Nc3ccc(C#N)cc3C(=O)O)c2c1 | 4 µg/mL (≈ 10.1 µM)
25 | N#Cc1ccc(NC(=O)c2noc3ccc(NC(=O)C4CCC4)cc23)c(C(=O)O)c1 | 2 µg/mL (≈ 4.95 µM)
26 | Cn1c(C(=O)Nc2ccc(C#N)cc2C(=O)O)cc2ccc(NC(=O)c3ccco3)cc21 | 2 µg/mL (≈ 4.67 µM)

Row | Structure (SMILES) | MIC
27 | CN(C(=O)Nc1ccc2cc(C(=O)Nc3ccc(C#N)cc3C(=O)O)n(C)c2c1)c1ccccc1 | 0.5 µg/mL (≈ 1.07 µM)
28 | CC(=O)Nc1ccc2cc(C(=O)Nc3ccc(C#N)cc3C(=O)O)n(C)c2c1 | 1 µg/mL (≈ 2.66 µM)
29 | Cn1c(C(=O)Nc2ccc(C#N)cc2C(=O)O)cc2ccc(NC(=O)c3ccc(OC(F)(F)F)cc3)cc21 | 2 µg/mL (≈ 3.83 µM)
30 | Cn1c(C(=O)Nc2ccc(C#N)cc2C(=O)O)cc2ccc(-c3ccccc3F)cc21 | 0.5 µg/mL (≈ 1.21 µM)
31 | Cn1c(C(=O)Nc2ccc(C#N)cc2C(=O)O)cc2ccc(OCC3CC3)cc21 | 0.25 µg/mL (≈ 0.642 µM)
32 | Cn1cc(C(=O)Nc2ccc(C#N)cc2C(=O)O)c2ccccc21 | 16 µg/mL (≈ 50.1 µM)
33 | Cn1c(C(=O)Nc2ccc(C#N)cc2C(=O)O)cc2cccc(Br)c21 | 0.5 µg/mL (≈ 1.26 µM)
34 | COC(Cc1cnc(C(=O)Nc2ccc(Br)cc2C(=O)O)cn1)[C@H]1COC2(CCCCC2)O1 (stereo partly drawn) | 128 µg/mL (≈ 246 µM)
35 | O=C(Nc1ccc(Br)cc1C(=O)O)c1cnc(CC(O)[C@H](O)CO)cn1 (stereo partly drawn) | > 128 µg/mL
36 | COC1CCn2c(C(=O)Nc3ccc(C#N)cc3C(=O)O)cc3cccc1c32 (stereo not drawn) | 0.5 µg/mL (≈ 1.33 µM)
37 | N#Cc1ccc(NC(=O)c2cc3cccc4c3n2CCC4O)c(C(=O)O)c1 (stereo not drawn) | 0.5 µg/mL (≈ 1.38 µM)
38 | N#Cc1ccc(NC(=O)c2cc3cccc4c3n2CCC4Oc2ccccc2)c(C(=O)O)c1 (stereo not drawn) | 0.25 µg/mL (≈ 0.571 µM)
39 | Cn1c(C(=O)Nc2ccc(C#N)cc2C(=O)O)cc2cccc(-c3ccccc3C(F)(F)F)c21 | 0.06 µg/mL (≈ 0.129 µM)
40 | Cn1c(C(=O)Nc2ccc(C#N)cc2C(=O)O)cc2cccc(-c3ccccc3)c21 | 0.25 µg/mL (≈ 0.632 µM)
41 | Cn1c(C(=O)Nc2ccc(C#N)cc2C(=O)O)cc2cccc(-c3ccc(C(C)(C)C)cc3)c21 | 4 µg/mL (≈ 8.86 µM)
42 | Cc1ccc(-c2cccc3cc(C(=O)Nc4ccc(C#N)cc4C(=O)O)n(C)c23)s1 | 0.5 µg/mL (≈ 1.2 µM)
43 | Cn1c(C(=O)Nc2ccc(C#N)cc2C(=O)O)cc2ccc(NS(C)(=O)=O)cc21 | 4 µg/mL (≈ 9.7 µM)
44 | COCC(OC)C(Cc1cnc(C(=O)Nc2ccc(Br)cc2C(=O)O)cn1)OC (stereo not drawn) | > 128 µg/mL
45 | COC(Cc1cnc(C(=O)Nc2ccc(Br)cc2C(=O)O)cn1)[C@H](O)CO (stereo partly drawn) | > 128 µg/mL
46 | COCOCC(CCc1cc(C(=O)Nc2ccc(Br)cc2C(=O)O)no1)OCOC (stereo not drawn) | 8 µg/mL (≈ 16.4 µM)
47 | COc1ccc(OC)c(NC(=O)Nc2ccc3cc(C(=O)Nc4ccc(C#N)cc4C(=O)O)n(C)c3c2)c1 | 2 µg/mL (≈ 3.89 µM)
48 | Cn1c(C(=O)Nc2ccc(C#N)cc2C(=O)O)cc2ccc(NC(=O)c3ccno3)cc21 | 0.5 µg/mL (≈ 1.16 µM)
49 | CCCCCNC(=O)Nc1ccc2cc(C(=O)Nc3ccc(C#N)cc3C(=O)O)n(C)c2c1 | 0.5 µg/mL (≈ 1.12 µM)
50 | Cn1c(C(=O)Nc2ccc(C#N)cc2C(=O)O)cc2cccc(-c3ccc(S(C)(=O)=O)cc3)c21 | 8 µg/mL (≈ 16.9 µM)
51 | COc1ccccc1-c1cccc2cc(C(=O)Nc3ccc(C#N)cc3C(=O)O)n(C)c12 | 0.25 µg/mL (≈ 0.588 µM)
52 | Cn1c(C(=O)Nc2ccc(C#N)cc2C(=O)O)cc2cccc(-c3ccccc3F)c21 | 0.25 µg/mL (≈ 0.605 µM)

Row | Structure (SMILES) | MIC
53 | Cc1ccccc1-c1cccc2cc(C(=O)Nc3ccc(C#N)cc3C(=O)O)n(C)c12 | 0.125 µg/mL (≈ 0.305 µM)
54 | N#Cc1ccc(NC(=O)c2ccc(SCc3ccncc3)nn2)c(C(=O)O)c1 | 0.25 µg/mL (≈ 0.639 µM)
55 | Cc1noc(C)c1S(=O)(=O)Nc1ccc2cc(C(=O)Nc3ccc(C#N)cc3C(=O)O)n(C)c2c1 | 2 µg/mL (≈ 4.05 µM)
56 | CN(C)c1ccc2onc(C(=O)Nc3ccc(C#N)cc3C(=O)O)c2c1 | 0.25 µg/mL (≈ 0.714 µM)
57 | CCNc1ccc2onc(C(=O)Nc3ccc(C#N)cc3C(=O)O)c2c1 | 0.5 µg/mL (≈ 1.43 µM)
58 | N#Cc1ccc(NC(=O)c2noc3ccc(NCC4CC4)cc23)c(C(=O)O)c1 | 0.5 µg/mL (≈ 1.33 µM)
59 | COCCNc1ccc2onc(C(=O)Nc3ccc(C#N)cc3C(=O)O)c2c1 | 1 µg/mL (≈ 2.63 µM)
60 | N#Cc1ccc(NC(=O)c2noc3ccc(NCC(O)CO)cc23)c(C(=O)O)c1 (stereo not drawn) | 2 µg/mL (≈ 5.05 µM)
61 | COCOCC(OCOC)C(Cc1cnc(C(=O)Nc2ccc(Br)cc2C(=O)O)cn1)OC (stereo not drawn) | > 128 µg/mL
62 | CCCCS(=O)(=O)N(c1ccc2cc(C(=O)Nc3ccc(C#N)cc3C(=O)O)n(C)c2c1)S(=O)(=O)CCCC | 2 µg/mL (≈ 3.48 µM)
63 | Cn1c(C(=O)Nc2ccc(C#N)cc2C(=O)O)cc2ccc(N(S(=O)(=O)c3ccccc3)S(=O)(=O)c3ccccc3)cc21 | 0.5 µg/mL (≈ 0.813 µM)
64 | N#Cc1ccc(NC(=O)c2n[nH]c3ccccc23)c(C(=O)O)c1 | 16 µg/mL (≈ 52.2 µM)
65 | CCCCCCSc1ccc(C(=O)Nc2ccc(C#N)cc2C(=O)O)nc1 | 0.125 µg/mL (≈ 0.326 µM)
66 | N#Cc1ccc(NC(=O)c2ccc(SCCCCCO)nn2)c(C(=O)O)c1 | 0.06 µg/mL (≈ 0.155 µM)
67 | N#Cc1ccc(NC(=O)c2ccc(SCC(=O)c3ccc4c(c3)C(=O)NCO4)nn2)c(C(=O)O)c1 | 0.5 µg/mL (≈ 1.02 µM)
68 | Cc1ccccc1-c1ccc2onc(C(=O)Nc3ccc(C#N)cc3C(=O)O)c2c1 | 0.125 µg/mL (≈ 0.315 µM)
69 | COCOCC(O)C(Cc1cnc(C(=O)Nc2ccc(Br)cc2C(=O)O)cn1)OC (stereo not drawn) | 128 µg/mL (≈ 264 µM)
70 | N#Cc1ccc(NC(=O)c2noc3ccc(S(=O)(=O)N4CCCC4)cc23)c(C(=O)O)c1 | 0.06 µg/mL (≈ 0.136 µM)
71 | CCCN(CCC)S(=O)(=O)c1ccc2onc(C(=O)Nc3ccc(C#N)cc3C(=O)O)c2c1 | 0.25 µg/mL (≈ 0.531 µM)
72 | N#Cc1ccc(NC(=O)c2noc3ccc(S(=O)(=O)N4CCc5cc(Cl)ccc54)cc23)c(C(=O)O)c1 | 0.03 µg/mL (≈ 0.0574 µM)
73 | Cn1nc(C(=O)Nc2ccc(C#N)cc2C(=O)O)c2ccccc21 | 32 µg/mL (≈ 99.9 µM)
74 | O=C(O)c1cc(Br)ccc1NC(=O)c1noc2ccc(S(=O)(=O)Nc3ccccc3)cc12 | 0.03 µg/mL (≈ 0.0581 µM)
75 | O=C(O)c1cc(Br)ccc1NC(=O)c1noc2ccc(S(=O)(=O)N3CCOCC3)cc12 | 0.5 µg/mL (≈ 0.98 µM)
76 | CCCCCCSc1ccc(C(=O)Nc2ccc(Br)cc2C(=O)O)nc1 | 0.5 µg/mL (≈ 1.14 µM)
77 | Cn1c(C(=O)Nc2ccc(C#N)cc2C(=O)O)cc2ccc(NS(=O)(=O)c3cccs3)cc21 | 0.5 µg/mL (≈ 1.04 µM)
78 | CNC(=O)Nc1ccc2cc(C(=O)Nc3ccc(C#N)cc3C(=O)O)n(C)c2c1 | 2 µg/mL (≈ 5.11 µM)
